The values that follow come from patent US4524075A, “Pharmaceutical formulations containing pseudomonic acid” (Beecham Group p.l.c., priority 1982, dated 1985).

The conditions of series [1]: cited from earlier work.
The nature of series [2]: Stability in the presence of acid or of polyethylene glycol (general statements, no test described). In kind it is physicochemical.
A short description of series [3]: Stability test: storage at 30° or 37° C. for 12 months, amount of therapeutic agent remaining assayed at 2 and 12 months. Format: physicochemical.

As to `C/C(=C\C(=O)OCCCCCCCCC(=O)O)C[C@@H]1OC[C@H](C[C@@H]2O[C@H]2[C@@H](C)[C@H](C)O)[C@@H](O)[C@H]1O` [Pseudomonic acid], the “stability in the presence of acid” value in series [1] is “tend to undergo a rearrangement reaction in the presence of acid”. Further, the “stability in the presence of polyethylene glycol, or a derivative thereof” value in series [2] is on record as “improved stability”. Further, in series [3], the “% remaining after 2 months at 37° C.” value is “Dec”, the “% remaining after 12 months at 30° C.” value is “Dec” and the “% remaining after 12 months at 37° C.” value was “Dec”. In series [3] (storage, 1460 h), the “% remaining after 2 months at 30° C.” value is 78%.
